Data reported in publication PMC6753678, “Fueling Open Innovation for Malaria Transmission-Blocking Drugs: Hundreds of Molecules Targeting Early Parasite Mosquito Stages” (Frontiers in Microbiology, 2019).
Where two headings read alike, the source gives them in different places.

Tests used:
[1] = test system: P. falciparum late stage (stages IV-V) gametocytes; set-up: method as in Almela et al 2016; conditions: ref Almela et al 2016, read-out: Pf GCT ATP IC50, cited from earlier work
[2] = test system: P. falciparum late stage (stages IV-V) gametocytes; test: P. falciparum late stage gametocyte ATP depletion assay (Pf GC-ATP); conditions: 1: YES; 0: NO
[3] = test system: P. falciparum female gametocytes; test: P. falciparum female gametogenesis assay (Pf FGAA); conditions: 1: YES; 0: NO
[4] = test system: HepG2 cells; conditions: cited from earlier work
[5] = test system: P. falciparum female gametocytes; set-up: method as in Miguel-Blanco et al 2017; conditions: ref Miguel-Blanco et al 2017, read-out: Pf FGAA IC50, cited from earlier work
[6] = test system: HepG2 cells; test: HepG2 cytotoxicity assay
Outline: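 Cells at 2,500 per well in MEM with 10% fetal bovine serum and 1% NEAA were exposed to test compounds for 48 h at 37°C, 5% CO2. Viability was read by fluorescence, with percent inhibition calculated against 50 μM doxorubicin (positive) and DMSO (negative) controls.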

[7] = value reported with the Pf FGAA screen, ref Miguel-Blanco et al 2017
[8] = value reported with the Pf GCT ATP screen, ref Almela et al 2016
[9] = HepG2 cytotoxicity unified across the three screens
[10] = HepG2 values of the three screens unified

Structure (SMILES)	IC50 ([1]; TCAMS screen comparison) [nM]	Is compound selective in assay? Pf GC-ATP active? [2]	Is compound selective in assay? Pf FGAA active? [3]	HepG2 cytoxicity [4, 7] [µM]	HepG2 cytoxicity [4, 8] [µM]	IC50 ([5]; TCAMS screen comparison) [nM]	Unified cytotox [6, 9] [µM]	IC50 [1] [nM]	HepG2 cytoxicity (Pf GCT ATP screen) ([4]; ref Almela et al 2016) [µM]	HepG2 cytoxicity (Pf FGAA screen) ([4]; ref Miguel-Blanco et al 2017) [µM]	IC50 [5] [nM]	Unified cytotox [6, 10] [µM]
COc1ccc(CCNCCCCCCNCCc2ccc(-c3ccccc3)cc2)cc1OC.Cl [TCMDC-131267]	170	1 (1: YES)	0 (0: NO)	6.90	3.25	1260	5.07	–	–	–	–	–
CCOc1ccccc1CCNC(C)Cc1ccc(C(=O)Nc2ccc(CC(C)NCCc3cccc(Cl)c3)cc2)cc1 (centres unmarked) [TCMDC-139805]	610	0 (0: NO)	0 (0: NO)	3.24	3.5	1390	3.37	–	–	–	–	–
CCCCOc1c(CCNCCCCNCCc2cc(OC)c3ccccc3c2OCCCC)cc(OC)c2ccccc12.CS(=O)(=O)O [TCMDC-137848]	–	1 (1: YES)	0 (0: NO)	–	–	–	–	80	3.1	1.97	610	2.54
COc1ccc(OC)c(-c2cccc(-c3cccc(NC(=O)c4ccc([N+](=O)[O-])o4)c3)n2)c1 [TCMDC-124799]	780	0 (0: NO)	0 (0: NO)	3.63	6.15	960	4.89	–	–	–	–	–
COc1ccc(C[C@H](N)C(=O)N[C@H]2[C@@H](O)[C@H](n3cnc4c(N(C)C)ncnc43)O[C@@H]2CO)cc1 [TCMDC-123493]	560	0 (0: NO)	0 (0: NO)	1.80	2.95	290	2.37	–	–	–	–	–
COc1ccc(CNC2Cc3ccccc3C2)cc1-c1ccc(S(=O)(=O)NCCN2CCCC2)cc1.O=C(O)C(F)(F)F [TCMDC-132248]	1380	0 (0: NO)	0 (0: NO)	5.89	8.28	1990	7.08	–	–	–	–	–
Cc1c(Cn2ncc(N3CCC(N)CC3)c(Cl)c2=O)cccc1NC(=O)Nc1ccc(-c2ccccc2)cc1.O=C(O)C(F)(F)F [TCMDC-141931]	1180	1 (1: YES)	1 (1: YES)	22.90	14.5	1090	18.70	–	–	–	–	–
CN1CCN(CCCN(Cc2cccc(-c3ccc(CNCCc4ccccc4)cc3)c2)C(=O)c2cccs2)CC1.O=C(O)C(F)(F)F [TCMDC-140568]	890	0 (0: NO)	0 (0: NO)	5.98	5.6	1710	5.79	–	–	–	–	–
Cc1ccccc1OCC(O)CNC1CCC(NCC(O)COc2ccccc2C)CC1 (centres unmarked) [TCMDC-125142]	140	1 (1: YES)	0 (0: NO)	4.07	3.78	1110	3.93	–	–	–	–	–
COc1ccc(CCNCCCCCCNCCc2ccc(Cl)cc2)c(Cl)c1OC.Cl [TCMDC-131272]	260	1 (1: YES)	0 (0: NO)	5.54	6.2	830	5.87	–	–	–	–	–
N=C(/N=C(/NCCCCCCN/C(=N/C(=N)NCc1ccc(Cl)c(Cl)c1)N1CCCCC1)N1CCCCC1)NCc1ccc(Cl)c(Cl)c1 [TCMDC-131816]	370	1 (1: YES)	1 (1: YES)	43.18	>25	2610	43.18	–	–	–	–	–
COc1ccc(CCNCCCCCCNCCc2ccc(Cl)c3ccccc23)cc1OC.Cl [TCMDC-131270]	130	1 (1: YES)	0 (0: NO)	2.12	3.23	580	2.68	–	–	–	–	–
CCC(CSC1CCCCC1)N(C)CCN(C)C(CC)CSC1CCCCC1.Cl (centres unmarked) [TCMDC-131456]	1400	0 (0: NO)	0 (0: NO)	0.0654	0.87	1250	0.47	–	–	–	–	–
CC(=O)N(Cc1ccc(CC(C)NCCc2cccc(Cl)c2)cc1)Cc1ccc(CC(C)NCCc2cccc(Cl)c2)cc1 (centres unmarked) [TCMDC-139678]	1400	0 (0: NO)	0 (0: NO)	2.85	2.3	810	2.58	–	–	–	–	–
Cc1oc(-c2ccc(Cl)cc2)cc1C(=O)NCCC1CCN(CCCCCNC(=O)/C=C/c2ccc(Cl)c(Cl)c2)CC1 [TCMDC-140009]	5430	0 (0: NO)	0 (0: NO)	3.31	4.1	1830	3.71	–	–	–	–	–
CC(C)NCc1ccc(OCc2cccc(COc3ccc(CNC(C)C)cc3I)c2)c(I)c1.Cl [TCMDC-137259]	210	1 (1: YES)	0 (0: NO)	1.64	4.9	1320	3.27	–	–	–	–	–
FC(F)(F)c1ccc2[nH]c(-c3ccc(-c4ccc(CNCCN5CCNCC5)cc4)s3)nc2c1.O=C(O)C(F)(F)F [TCMDC-132862]	1290	0 (0: NO)	0 (0: NO)	12.88	6.9	3000	9.89	–	–	–	–	–
CS(=O)(=O)O.FC(F)(F)COc1ccc2ccccc2c1CNCCCCCCNCc1c(OCC(F)(F)F)ccc2ccccc12 [TCMDC-137816]	370	0 (0: NO)	0 (0: NO)	1.84	3.04	1090	2.44	–	–	–	–	–
CC(CCCCCC(=O)Nc1ccc(CC(C)NCCc2cccc(Cl)c2)cc1)NCCc1cccc(Cl)c1 (centres unmarked) [TCMDC-139800]	430	0 (0: NO)	0 (0: NO)	2.55	3.2	1390	2.87	–	–	–	–	–
CC(C)(C)c1ccc(CN2CCC(CNC(=O)c3cc(-c4ccccc4C(F)(F)F)cs3)C2)cc1.O=C(O)C(F)(F)F (centres unmarked) [TCMDC-134441]	310	1 (1: YES)	1 (1: YES)	9.77	6.4	690	8.09	–	–	–	–	–
COc1c(CCNCCCCNCCc2cc(Cl)c3ccccc3c2OC)cc(Cl)c2ccccc12.CS(=O)(=O)O [TCMDC-137869]	–	1 (1: YES)	0 (0: NO)	–	–	–	–	80	3.36	1.78	330	2.57
S=C(NN=Cc1ccccn1)NC1CC2C=CC1C2 (centres unmarked) [TCMDC-125752]	110	0 (0: NO)	1 (1: YES)	–	0.7	15.3	0.70	–	–	–	–	–
CCCCCCCCN1CCN(CCCCCCNc2c3ccccc3nc3ccccc23)CC1.Cl [TCMDC-138015]	250	1 (1: YES)	0 (0: NO)	3.35	3.1	640	3.23	–	–	–	–	–
Cl.N=C(NCCCCC1CCCCC1)c1cccc(C(=N)NCCCCC2CCCCC2)n1 [TCMDC-137452]	220	0 (0: NO)	0 (0: NO)	1.82	1.6	1050	1.71	–	–	–	–	–
